In paper PMC3626541, “A first in human, safety, pharmacokinetics, and clinical activity phase I study of once weekly administration of the Hsp90 inhibitor ganetespib (STA-9090) in patients with solid malignancies” (BMC Cancer, 2013):

Tested on: patients with advanced solid tumors
Assay: Safety: adverse events (NCI CTCAE v3.0), ECG
Assay type: in vivo, human
Protocol: Patients’ demographics and medical history were recorded at baseline. Physical examination and PS were assessed at baseline and on Day 1 of each cycle. Adverse events (AEs), vital signs, hematology and chemistry values, and creatinine clearance were assessed at baseline and weekly during treatment. Toxicity was graded using National Cancer Institute Common Terminology Criteria for Adverse Events (NCI CTCAE), version 3.0. An electrocardiogram (ECG) was performed at baseline, before and after treatment on Days 1 and 15 of Cycles 1 and 2, and on Day 15 of even-numbered cycles thereafter. CT scans were done at baseline and every 8 weeks thereafter. Tumor response was assessed using Response Evaluation Criteria in Solid Tumors (RECIST, v1.0), with confirmation of responses performed at least 4 weeks later.

`CC(C)c1cc(-c2n[nH]c(=O)n2-c2ccc3c(ccn3C)c2)c(O)cc1O` [Ganetespib, 5-[2,4-dihydroxy-5-(1 methyl-ethyl)phenyl]-2,4 dihydro-4-(1-methyl-1H indol-5 yl)-3H-1,2,4 triazole-3-one] was tested, and the “ALT elevation, CTCAE Grade 3 and 4 AE, Number (%) of patients” value (259 mg/m^2, n = 6) was 0 n (%), the “AST elevated, AE of any grade, Number (%) of patients” value (259 mg/m^2, n = 6) was 0 n (%) and the “Abdominal distension, AE of any grade, Number (%) of patients” value (259 mg/m^2, n = 6) was 0 n (%). The “Abdominal pain, AE of any grade, Number (%) of patients” value (259 mg/m^2, n = 6) was 1 (16.7) n (%), the “Abdominal pain, serious adverse events, Number (%) of patients” value (259 mg/m^2, n = 6) was 1 (16.7) n (%) and the “Anemia, AE of any grade, Number (%) of patients” value (259 mg/m^2, n = 6) was 0 n (%). For the same molecule, the “Any event, AE of any grade, Number (%) of patients” value (259 mg/m^2, n = 6) was 6 (100) n (%), the “Any event, CTCAE Grade 3 and 4 AE, Number (%) of patients” value (259 mg/m^2, n = 6) was 5 (83.3) n (%) and the “Any event, serious adverse events, Number (%) of patients” value (259 mg/m^2, n = 6) was 3 (50) n (%). The “Arthralgia, CTCAE Grade 3 and 4 AE, Number (%) of patients” value (259 mg/m^2, n = 6) was 1 (16.7) n (%), the “Asthenia, AE of any grade, Number (%) of patients” value (259 mg/m^2, n = 6) was 2 (33.3) n (%) and the “Asthenia, CTCAE Grade 3 and 4 AE, Number (%) of patients” value (259 mg/m^2, n = 6) was 2 (33.3) n (%). For the same molecule, the “Asthenia, serious adverse events, Number (%) of patients” value (259 mg/m^2, n = 6) was 1 (16.7) n (%), the “Back pain, AE of any grade, Number (%) of patients” value (259 mg/m^2, n = 6) was 2 (33.3) n (%) and the “Constipation, AE of any grade, Number (%) of patients” value (259 mg/m^2, n = 6) was 1 (16.7) n (%). For the same molecule, the “Decreased appetite, AE of any grade, Number (%) of patients” value (259 mg/m^2, n = 6) was 1 (16.7) n (%), the “Dehydration, AE of any grade, Number (%) of patients” value (259 mg/m^2, n = 6) was 3 (50) n (%) and the “Dehydration, CTCAE Grade 3 and 4 AE, Number (%) of patients” value (259 mg/m^2, n = 6) was 1 (16.7) n (%). The “Dehydration, serious adverse events, Number (%) of patients” value (259 mg/m^2, n = 6) was 1 (16.7) n (%), the “Diarrhea, AE of any grade, Number (%) of patients” value (259 mg/m^2, n = 6) was 6 (100) n (%) and the “Diarrhea, CTCAE Grade 3 and 4 AE, Number (%) of patients” value (259 mg/m^2, n = 6) was 1 (16.7) n (%). The “Dizziness, AE of any grade, Number (%) of patients” value (259 mg/m^2, n = 6) was 2 (33.3) n (%), the “Dry mouth, AE of any grade, Number (%) of patients” value (259 mg/m^2, n = 6) was 1 (16.7) n (%) and the “Dyspnea, AE of any grade, Number (%) of patients” value (259 mg/m^2, n = 6) was 1 (16.7) n (%). For the same molecule, the “Extremity pain, AE of any grade, Number (%) of patients” value (259 mg/m^2, n = 6) was 1 (16.7) n (%), the “Fatigue, AE of any grade, Number (%) of patients” value (259 mg/m^2, n = 6) was 5 (83.3) n (%) and the “Fatigue, CTCAE Grade 3 and 4 AE, Number (%) of patients” value (259 mg/m^2, n = 6) was 1 (16.7) n (%). For the same molecule, the “Headache, AE of any grade, Number (%) of patients” value (259 mg/m^2, n = 6) was 1 (16.7) n (%), the “Hyperbilirubinemia, CTCAE Grade 3 and 4 AE, Number (%) of patients” value (259 mg/m^2, n = 6) was 0 n (%) and the “Hypokalemia, AE of any grade, Number (%) of patients” value (259 mg/m^2, n = 6) was 1 (16.7) n (%). The “Hypokalemia, CTCAE Grade 3 and 4 AE, Number (%) of patients” value (259 mg/m^2, n = 6) was 0 n (%), the “Hyponatremia, CTCAE Grade 3 and 4 AE, Number (%) of patients” value (259 mg/m^2, n = 6) was 0 n (%) and the “Hypophosphatemia, AE of any grade, Number (%) of patients” value (259 mg/m^2, n = 6) was 0 n (%). For the same molecule, the “Hypophosphatemia, CTCAE Grade 3 and 4 AE, Number (%) of patients” value (259 mg/m^2, n = 6) was 0 n (%), the “Insomnia, AE of any grade, Number (%) of patients” value (259 mg/m^2, n = 6) was 2 (33.3) n (%) and the “Musculoskeletal chest pain, AE of any grade, Number (%) of patients” value (259 mg/m^2, n = 6) was 0 n (%). The “Nausea, AE of any grade, Number (%) of patients” value (259 mg/m^2, n = 6) was 4 (66.7) n (%), the “Peripheral edema, AE of any grade, Number (%) of patients” value (259 mg/m^2, n = 6) was 1 (16.7) n (%) and the “Pneumonia, serious adverse events, Number (%) of patients” value (259 mg/m^2, n = 6) was 1 (16.7) n (%). The “Rash, AE of any grade, Number (%) of patients” value (259 mg/m^2, n = 6) was 1 (16.7) n (%), the “Serum amylase elevated, CTCAE Grade 3 and 4 AE, Number (%) of patients” value (259 mg/m^2, n = 6) was 0 n (%) and the “Spinal cord compression, CTCAE Grade 3 and 4 AE, Number (%) of patients” value (259 mg/m^2, n = 6) was 0 n (%). The “Urinary tract infection, AE of any grade, Number (%) of patients” value (259 mg/m^2, n = 6) was 3 (50) n (%), the “Vomiting, AE of any grade, Number (%) of patients” value (259 mg/m^2, n = 6) was 3 (50) n (%) and the “Weight decreased, AE of any grade, Number (%) of patients” value (259 mg/m^2, n = 6) was 1 (16.7) n (%). The “ALT elevated, AE of any grade, Number (%) of patients” value (259 mg/m^2, n = 6, first of two ALT elevated lines) was 0 n (%), the “ALT elevated, AE of any grade, Number (%) of patients” value (259 mg/m^2, n = 6, second of two ALT elevated lines) was 0 n (%) and the “Patients with Grade 1 atrio-ventricular block” value (259 mg/m^2, history of coronary artery disease, possibly related to study drug) was “One patient”. The Incidence of diarrhea (259 mg/m^2 dose level) was 100%, the Incidence of fatigue (259 mg/m^2 dose level) was 83.3% and the “ALT elevation, CTCAE Grade 3 and 4 AE, Number (%) of patients” value (7-114 mg/m^2, n = 25) was 2 (8) n (%). For the same molecule, the “AST elevated, AE of any grade, Number (%) of patients” value (7-114 mg/m^2, n = 25) was 5 (20) n (%), the “Abdominal distension, AE of any grade, Number (%) of patients” value (7-114 mg/m^2, n = 25) was 3 (12) n (%) and the “Abdominal pain, AE of any grade, Number (%) of patients” value (7-114 mg/m^2, n = 25) was 9 (36) n (%). For the same molecule, the “Abdominal pain, serious adverse events, Number (%) of patients” value (7-114 mg/m^2, n = 25) was 0 n (%) and the “Anemia, AE of any grade, Number (%) of patients” value (7-114 mg/m^2, n = 25) was 11 (44) n (%).
